Structures can show the parent of a compound that is named as a salt.
Assays:
[1] = test system: MCF-7, Hep3B and U2OS cells; experiment: Immunoblotting of HIF1α induction in MCF-7, Hep3B and U2OS cells; format: cell-based, human; settings: immunoblot
Description: (§1) Human cell lines (RCC4, HeLa, Hep3B, MCF-7 and U2OS) were cultured in DMEM (D6546-500ML; Sigma Aldrich) each supplemented with 10% fetal bovine serum (F7524-500ML; Sigma Aldrich), 2 mM L-glutamine (G7513- 100ML; Sigma Aldrich), 50 units/ml of penicillin, and 50 μg/ml of streptomycin (P0781-100ML; Sigma Aldrich). The RCC4 cell line was a gift from C.H.C.M. Buys (University of Groningen, [2]), the HeLa and Hep3B cell lines were from the European Collection of Cell Cultures (ECACC), the MCF-7 cell line was from the American Type Culture Collection (ATCC) and the U2OS cell line was a gift from S.Galey (ICRF Clare Hall Laboratories, United Kingdom). Cells were treated either with DMSO (control) or compounds (dissolved in DMSO) and added directly into the cell culture medium to the desired final concentration for 4–5 h as previously described.
Cells were extracted using urea/SDS buffer (6.7 M urea, 10 mM Tris-HCl pH 6.8, 10% glycerol and 1% SDS) and processed for immunoblotting as described. […]

HIF1α and HIF2α = experiment: HIFα induction in tissues of treated mice (immunoblotting); format: in vivo, C57BL/6 mice; settings: i.p.; for HIF1α and HIF2α induction in liver, kidney and heart / HIF1α and HIF2α induction in the brain: equimolar: IOX2 37.7 mg/kg, IOX4 35 mg/kg, DMOG 75 mg/kg
Description: All animal experiments were performed on male C57BL/6 mice aged 3 months (purchased from Harlan Laboratories, Blackthorn) housed in specific pathogen free conditions with free access to water and standard chow. Mice were injected intraperitonially with the inhibitor (dissolved in Hanks’ buffered saline solution, pH 7.0, 5% DMSO final) or vehicle at the indicated doses for the indicated time as previously described. Tissues from treated mice were harvested and ‘snap frozen’ with liquid nitrogen before being stored at -80°C. For immunoblotting, a portion of the tissues was removed, weighed and homogenised in urea/SDS buffer before being analysed by immunoblotting with HIF1α rabbit polyclonal antibody (10006421, Cayman Chemical, 1:1000) or HIF2α rabbit polyclonal antibody (PM9 [27], 1:1000). For RNA extraction, tissues were ‘snap frozen’ in liquid nitrogen immediately after harvesting, then ground to a fine powder using a cryogenic tissue pulveriser, keeping samples on dry ice at all times and processed for total RNA extraction using the mirVana miRNA isolation kit (AM1560, Life Technologies) according to the manufacturer’s protocol for processing frozen tissues. All animal procedures were compliant with the UK Home Office Animals (Scientific Procedures) Act 1986 and Local Ethical Review Procedures (University of Oxford Medical Sciences Division Ethical Review Committee).
The inhibitors or vehicle controls were injected intraperitonially into wild type C57BL/6 mice and sacrificed after the indicated treatment time before harvesting their tissues to be analysed for HIFα levels by immunoblotting.

JMJD2C (KDM4C) = target: T1, JMJD2C (KDM4C) (Homo sapiens, UniProt Q9H3R0); experiment: KDM AlphaScreen assay, JMJD2C
T1 sequence (Q9H3R0 1-1056): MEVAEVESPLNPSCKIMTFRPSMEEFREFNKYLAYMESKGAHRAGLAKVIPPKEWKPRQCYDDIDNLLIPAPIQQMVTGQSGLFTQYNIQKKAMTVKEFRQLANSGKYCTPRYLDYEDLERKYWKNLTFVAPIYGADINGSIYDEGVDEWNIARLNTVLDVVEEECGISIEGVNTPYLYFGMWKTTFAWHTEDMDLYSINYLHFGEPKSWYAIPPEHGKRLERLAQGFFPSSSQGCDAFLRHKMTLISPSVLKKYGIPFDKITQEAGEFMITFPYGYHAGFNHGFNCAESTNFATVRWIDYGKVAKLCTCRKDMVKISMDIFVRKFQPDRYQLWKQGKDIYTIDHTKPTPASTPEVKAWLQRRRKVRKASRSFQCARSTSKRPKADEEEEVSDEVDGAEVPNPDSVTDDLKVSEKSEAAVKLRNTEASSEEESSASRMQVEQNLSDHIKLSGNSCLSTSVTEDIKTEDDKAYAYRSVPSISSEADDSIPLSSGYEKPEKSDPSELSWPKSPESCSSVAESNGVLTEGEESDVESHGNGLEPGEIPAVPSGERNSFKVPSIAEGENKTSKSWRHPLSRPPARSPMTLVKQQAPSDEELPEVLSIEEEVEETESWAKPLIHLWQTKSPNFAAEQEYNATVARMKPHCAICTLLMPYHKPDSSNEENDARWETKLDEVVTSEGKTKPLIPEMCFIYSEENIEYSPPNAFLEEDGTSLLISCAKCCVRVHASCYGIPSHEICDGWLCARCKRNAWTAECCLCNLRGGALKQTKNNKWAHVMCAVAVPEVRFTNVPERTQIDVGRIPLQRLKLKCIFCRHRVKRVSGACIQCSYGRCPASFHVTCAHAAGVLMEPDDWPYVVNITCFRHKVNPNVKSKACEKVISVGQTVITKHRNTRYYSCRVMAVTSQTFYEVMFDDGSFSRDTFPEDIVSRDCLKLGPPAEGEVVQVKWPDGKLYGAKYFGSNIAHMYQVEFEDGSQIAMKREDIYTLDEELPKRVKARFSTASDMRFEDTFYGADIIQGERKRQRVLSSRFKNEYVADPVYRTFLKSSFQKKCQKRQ
Description: Inhibition assays for PHD2 (AlphaScreen) [9], the KDMs (AlphaScreen) [17], BBOX [18] and FTO [19] were carried out as previously described. N-Terminally biotinylated 19-residue human HIF1α CODD peptide ([sequence]) used in the PHD2 inhibition assays was from GL Biochem (Shanghai). IC50 values were calculated using nonlinear regression with normalized dose-response fit using GraphPad Prism 5.

RCC4 cells = experiment: Immunoblotting of HIF1α hydroxylation in VHL-defective RCC4 cells; format: cell-based, human; settings: immunoblot
Description: as §1
Cells were extracted using urea/SDS buffer (6.7 M urea, 10 mM Tris-HCl pH 6.8, 10% glycerol and 1% SDS) and processed for immunoblotting as described. The following primary antibodies were used for immunoblotting: mouse monoclonal HIF1α antibody clone 54 (610958, BD Transduction Laboratories, 1:1000), rabbit polyclonal HIF1α hydroxy-Pro402 antibody (07–1585, Millipore, 1:1000), rabbit monoclonal HIF1α hydroxy-Pro564 antibody clone D43B5 (3434S, Cell Signaling, 1:500), mouse monoclonal HIF1α hydroxy-Asn803 antibody (a kind gift from Dr M. K. Lee, Republic of Korea, 1:4000), mouse monoclonal PHD2 antibody clone 76a (1:10), mouse monoclonal FIH antibody clone 162c (1:200) and β-actin/HRP (clone AC15, Abcam). HRP-conjugated swine polyclonal anti-rabbit IgG (P0399, Dako), and goat polyclonal anti-mouse IgG (P0447, Dako) were used as secondary antibodies.
In this cell line, the extent of the differential HIF1α prolyl hydroxylation at the N-terminal and C-terminal oxygen-dependent degradation domains (HyPro402 and HyPro564, respectively), as well as HIF1α asparaginyl hydroxylation at the C-terminal transactivation domain (HyAsn803) can be interrogated by immunoblotting using hydroxylation specific antibodies.

Row | SMILES | HIF1α induction [1] | HIF1α and HIF2α induction in liver, kidney and heart (HIF1α and HIF2α; 1 h) | HIF1α and HIF2α induction in the brain (HIF1α and HIF2α; 1 h) | HIF1α induction in mouse liver (HIF1α and HIF2α; IOX2 37.7 mg/kg, IOX3 30 mg/kg (equivalent molar dose), 1 h and […]) | IC50 (JMJD2C (KDM4C)) | HIF1α prolyl-hydroxylation (HyPro402, HyPro564) (RCC4 cells) | HIF1α asparaginyl-hydroxylation (HyAsn803) (RCC4 cells; 50 μM) | HIF1α and HIF2α induction in the liver and brain, dose dependence (HIF1α and HIF2α; 1 h, 17.5 to 70 mg/kg)
1 | O=C(O)CNC(=O)c1c(O)c2ccccc2n(Cc2ccccc2)c1=O [IOX2] | Induction of HIF1α levels were observed | strongest induction | not | induced in mouse liver after 1 h |  |  |  | 
2 | CC(C)(C)OC(=O)c1ccc(-n2[nH]cc(-n3ccnn3)c2=O)nc1 [IOX4, t-Butyl 6-(5-oxo-4-(1H-1,2,3-triazol-1-yl)-2,5-dihydro-1H-pyrazol-1-yl)nicotinate] | Induction of HIF1α levels were observed | induction of HIF1α and HIF2α | induced |  | > 20 µM | block prolyl-hydroxylation of HIF1α at both NODD (HyPro402) and CODD (HyPro564) | some apparent inhibition | Dose-dependent induction
3 | O=C(O)c1ccc(-n2[nH]cc(-n3ccnn3)c2=O)nc1 [compound 1, 6-(5-oxo-4-(1H-1,2,3-triazol-1-yl)-2,5-dihydro-1H-pyrazol-1-yl)pyridine-3-carbocylic acid hydrochloride] |  |  |  |  | > 20 µM | block prolyl-hydroxylation of HIF1α at both NODD (HyPro402) and CODD (HyPro564) |  | 

Source: PMC4492579, “Potent and Selective Triazole-Based Inhibitors of the Hypoxia-Inducible Factor Prolyl-Hydroxylases with Activity in the Murine Brain” (PLoS ONE, 2015)
